Read-outs that look alike come from different tables or passages of the source.

A word on the Ki: it is a dissociation constant, usually derived from enzyme kinetics or from competition with a known ligand. Usually EC50 stands for the midpoint of the concentration-response curve.

Test [1] addresses NS3/4A protease gt 1b (Hepatitis C virus genotype 1b, UniProt P26663). Put plainly: HCV NS3 protease time-resolved fluorescence (TRF) assay, NS3/4A inhibitory activity (Ki), gt 1b. Type of test: biochemical. The conditions noted are these: genotype 1b NS3/4A; read-out: Enzyme Activity gt 1b Ki. Here is the method:
(§1) The HCV NS3 protease inhibitory activity of the present compounds may be tested using assays known in the art. One such assay is HCV NS3 protease time-resolved fluorescence (TRF) assay as described below and in International Patent Application Publication WO2006/102087. Other examples of such assays are described in e.g., International Patent Application Publication WO2005/046712. HCV NS3 protease inhibitors, such as those described herein have a Ki less than 50 μM, such as less than 10 μM, and less than 100 nM. Ki is determined by an NS3 protease assay. The assay is performed in a final volume of 100 μl in assay buffer containing 50 mM HEPES, pH 7.5, 150 mM NaCl, 15% glycerol, 0.15% TRITON X-100, 10 mM DTT, and 0.1% PEG 8000. NS3 protease is pre-incubated with various concentrations of inhibitors in DMSO for 30 minutes. The reaction is initiated by adding the TRF peptide substrate (final concentration 100 nM). NS3 mediated hydrolysis of the substrate is quenched after 1 hour at room temperature with 100 μl of 500 mM MES, pH 5.5. Product fluorescence is detected using either a VICTOR V2 or FUSION fluorophotometer (Perkin Elmer Life and Analytical Sciences) with excitation at 340 nm and emission at 615 nm with a 400 μs delay. Testing concentrations of different enzyme forms are selected to result in a signal to background ratio (S/B) of 10-30. IC50 values are derived using a standard four-parameter fit to the data. Ki values are derived from IC50 values using the following formula,
(§2) IC50=Ki(1+[S]/KM), Eqn (1),
(§3) where [S] is the concentration of substrate peptide in the reaction and KM is the Michaelis constant. See P. Gallinari et al., 38 BIOCHEM. 5620-32 (1999); P. Gallinari et al., 72 J. VIROL. 6758-69 (1998); M. Taliani et al., 240 ANAL. BIOCHEM. 60-67 (1996).
(§4) One such assay is HCV NS3 protease time-resolved fluorescence (TRF) assay as described below and in Mao et al., Anal Biochem. 373:1-8, 2008 and International Patent Application Publication WO 2006/102087. A NS3 protease assay can be performed, for example, in a final volume of 100 μl assay buffer containing 50 mM HEPES, pH 7.5, 150 mM NaCl, 15% glycerol, 0.15% TRITON X-100, 10 mM DTT, and 0.1% PEG 8000. NS3 and NS4A protease is pre-incubated with various concentrations of inhibitors in DMSO for 30 minutes. The reaction is initiated by adding the TRF peptide substrate (final concentration 100 nM). NS3 mediated hydrolysis of the substrate is quenched after 1 hour at room temperature with 100 μl of 500 mM MES, pH 5.5. Product fluorescence is detected using either a VICTOR V2 or FUSION fluorophotometer (Perkin Elmer Life and Analytical Sciences) with excitation at 340 nm and emission at 615 nm with a 400 μs delay. Testing concentrations of different enzyme forms are selected to result in a signal to background ratio (S/B) of 10-30. IC50 values are derived using a standard four-parameter fit to the data. Ki values are derived from IC50 values using the following formula,
(§5) where [S] is the concentration of substrate peptide in the reaction and KM is the Michaelis constant. See P. Gallinari et al., 38 BIOCHEM. 5620-32 (1999); P. Gallinari et al., 72 J. VIROL. 6758-69 (1998); M. Taliani et al., 240 ANAL. BIOCHEM. 60-67 (1996); Mao et al., Analytical Biochemistry 373: 1-8, 2008. Measuring Compound Inhibitory Potency (Replicon EC50 (nM))

Test [2] concerns the target NS3/4A protease gt 3a (Hepatitis C virus genotype 3a, UniProt Q81258). Put plainly: HCV NS3 protease time-resolved fluorescence (TRF) assay, NS3/4A inhibitory activity (Ki), gt 3a. Type of test: biochemical. The conditions noted are these: genotype 3a NS3/4A; read-out: Enzyme Activity gt 3a Ki. The method, then:
as §1, §2, §3, §4, §5

Test [3] deals with gt 1b Replicon. Put plainly: HCV replicon assay, compound inhibitory potency (Replicon EC50). Type of test: cell-based. The conditions noted are these: Hepatitis C virus, GT1B. Here is the method: Measurement of inhibition by compounds was performed using the HCV replicon system. Several different replicons encoding different HCV genotypes or mutations were used. In addition, potency measurements were made using different formats of the replicon assay, including different ways of measurements and different plating formats. See Jan M. Vrolijk et al., A replicons-based bioassay for the measurement of interferons in patients with chronic hepatitis C, 110 J. VIROLOGICAL METHODS 201 (2003); Steven S. Carroll et al., Inhibition of Hepatitis C Virus RNA Replication by 2′-Modified Nucleoside Analogs, 278(14) J. BIOLOGICAL CHEMISTRY 11979 (2003). However, the underlying principles are common to all of these determinations, and are outlined below.
Stable neomycin phosphotransferase encoding replicon-harboring cell lines were used, so all cell lines were maintained under G418 selection prior to the assay. In some cases the cell lines encoded a luciferase:Neor fusion and could be assayed either directly by determination of RNA copy number, or indirectly through measurement of the luciferase activity.
To initiate an assay, replicon cells were plated in the presence of a dilution series of test compound in the absence of G418. Typically, the assays were performed in a 96-well plate format for manual operation, or a 384 well plate in an automated assay. Replicon cells and compound were incubated for 24-48 hours, depending on the assay. At the end of the assay, cells are washed free of media and compound and then lysed. For direct quantitation, RNA levels were measured by ^32P-probe hybridization and protection, or in a TAQMAN based assay and normalized to cellular cyclophilin A RNA levels. In some cases, luciferase activity was measured using a conventional luciferase assay. In all cases EC50 determinations were calculated as a percent of a DMSO control by fitting the data to a four parameter fit function.
(In general: In antiviral work, replicon cells carry a viral genome segment that copies itself.)

For test [4], the target named is NS3/4A protease gt 1b A156V (Hepatitis C virus genotype 1b, UniProt P26663, A1182V). Put plainly: HCV NS3 protease time-resolved fluorescence (TRF) assay, NS3/4A inhibitory activity (Ki), gt 1b A156V mutant. It is filed as biochemical, hepatitis C virus (HCV). Here is the method:
as §1, §2, §3, §4, §5

For the compound `C=C[C@@H]1C[C@]1(NC(=O)[C@@H]1C[C@@H]2CN1C(=O)[C@H](C(C)(C)C)NC(=O)O[C@@]1(C)C[C@@H]1CCCCCc1nc3ccccc3nc1O2)C(=O)NS(=O)(=O)C1CC1` [Example I-9, (1aS,5S,8S,10R,22aS)-5-tert-butyl-N-{(1R,2S)-1-[(cyclopropylsulfonyl)carbamoyl]-2-ethenylcyclopropyl}-1a-methyl-3,6-dioxo-1,1a,3,4,5,6,9,10,18,19, 20,21,22,22a-tetra decahydro-8H-7,10-methanocyclopropa[18, 19][1,10,3,6]dioxadiaza cyclononadecino[11,12-b]quinoxaline-8-carboxamide], the Ki worked out at 0.06 nM in test [1] and 12.5 nM in test [2].
For the compound `CC[C@@H]1C[C@]1(NC(=O)[C@@H]1C[C@@H]2CN1C(=O)[C@H](C(C)(C)C)NC(=O)O[C@]1(C)C[C@H]1CCCCCc1nc3ccc(OC)cc3cc1O2)C(=O)NS(=O)(=O)C1CC1` [Example I-11], the inhibition constant Ki was found to be 0.03 nM in test [1] and 0.5 nM in test [2]. In addition, the EC50 in test [3] (10% Fetal Bovine Serum, read-out: gt 1b Replicon EC50 10% FBS) is 4 nM; in test [3] (50% Normal Human Serum, read-out: gt 1b Replicon EC50 50% NHS), 7 nM.
With `C=C[C@@H]1C[C@]1(NC(=O)[C@@H]1C[C@@H]2CN1C(=O)[C@H](C(C)(C)C)NC(=O)O[C@@]1(C)C[C@@H]1CC/C=C/c1cccc3c1CN(C3)C(=O)O2)C(=O)NS(=O)(=O)C1CC1` [Example I-14, (1aS,5S,8S,10R,19E,22aS)-5-tert-butyl-N-{(1R,2S)-1-[(cyclopropylsulfonyl)carbamoyl]-2-ethenylcyclopropyl}-1a-methyl-3,6,12-trioxo-1,1a,3,4,5,6,9, 10,14,21,22,22a-dodecahydro-8H-7,10:13,15-dimethano cyclopropa[n][4,13,2,8, 11]benzodioxatriaza cyclohenicosine-8(12H)-carboxamide], the inhibitory constant (Ki) in test [1] stood at 0.08 nM; in test [4], 6.3 nM; in test [2], 112 nM.
Taken in the same sequence, the figures for `C=C[C@@H]1C[C@]1(NC(=O)[C@@H]1C[C@@H]2CN1C(=O)[C@H](C(C)(C)C)NC(=O)O[C@]1(C)C[C@H]1CC/C=C/c1cccc3c1CN(C3)C(=O)O2)C(=O)NS(=O)(=O)C1CC1` [Example I-15, (1aR,5S,8S,10R,19E,22aR)-5-tert-butyl-N-{(1R,2S)-1-[(cyclopropylsulfonyl)carbamoyl]-2-ethenylcyclopropyl}-1a-methyl-3,6,12-trioxo-1,1a,3,4,5,6,9, 10,14,21,22,22a-dodecahydro-8H-7,10: 13,15-dimethanocyclo propa[n][4,13,2,8,11] benzodioxatriazacyclo henicosine-8(12H)-carboxamide] were 0.09 nM, 8.9 nM and 93.5 nM.
The like results for `C=C[C@@H]1C[C@]1(NC(=O)[C@@H]1C[C@@H]2CN1C(=O)[C@H](C1CCCC1)NC(=O)O[C@]1(C)CCC[C@H]1CC/C=C/Cc1c(nc3ccccc3c1OCc1ccccc1)O2)C(=O)NS(=O)(=O)C1CC1` [Example I-17, (3aR,7S,10S,12R,21E, 24aS)-19-(benzyloxy)-7-cyclopentyl-N-{(1R,2S)-1-[(cyclopropylsulfonyl)carbamoyl]-2-ethenylcyclopropyl}-3a-methyl-5,8-dioxo-1,2,3,3a,5,6,7,8,11,12, 20,23,24,24a-tetradeca hydro-10H-9,12-methanocyclopenta[18, 19][1,10,3,6]dioxadiaza cyclononadecino[11,12-b]quinoline-10-carboxamide] were, in that order, 0.07 nM, 9.6 nM and 27.9 nM.
The like results for `C=C[C@@H]1C[C@]1(NC(=O)[C@@H]1C[C@@H]2CN1C(=O)[C@H](C(C)(C)C)NC(=O)O[C@]1(C)C[C@H]1CCCCc1cccc3c1CN(C3)C(=O)O2)C(=O)NS(=O)(=O)C1CC1` [Example I-20, (1aR,5S,8S,10R,22aR)-5-tert-butyl-N-{(1R,2S)-1-[(cyclopropylsulfonyl)carbamoyl]-2-ethenylcyclopropyl}-1a-methyl-3,6,12-trioxo-1,1a,3,4,5,6,9, 10,14,19,20,21,22,22a-tetradecahydro-8H-7,10:13,15-dimethano cyclopropa[n][4,13,2,8, 11]benzodioxatriaza cyclohenicosine-8(12H)-carboxamide] were, in that order, 0.02 nM, 27.2 nM and 58.3 nM.
Consider `C=C[C@@H]1C[C@]1(NC(=O)[C@@H]1C[C@@H]2CN1C(=O)[C@H](C(C)(C)C)NC(=O)O[C@@]1(C)C[C@@H]1CCCCc1cccc3c1CN(C3)C(=O)O2)C(=O)NS(=O)(=O)C1CC1` [Example I-21, (1aS,5S,8S,10R,22aS)-5-tert-butyl-N-{(1R,2S)-1-[(cyclopropylsulfonyl)carbamoyl]-2-ethenylcyclopropyl}-1a-methyl-3,6,12-trioxo-1,1a,3,4,5,6,9,10,14,19,20,21,22,22a-tetradecahydro-8H-7,10:13,15-dimethano cyclopropa[n][4,13,2,8, 11]benzodioxatriaza cyclohenicosine-8(12H)-carboxamide], for which the inhibition constant (Ki) is 1.4 nM in test [1], 8.1 nM in test [4] and 300 nM in test [2].
For the compound `C=C[C@@H]1C[C@]1(NC(=O)[C@@H]1C[C@@H]2CN1C(=O)[C@H](C1CCCC1)NC(=O)O[C@@]1(C)C[C@@H]1CC/C=C/Cn1c(nc3cc(C)ccc3c1=O)O2)C(=O)NS(=O)(=O)C1CC1` [Example I-22, (1aS,5S,8S,10R,20E,23aS)-5-cyclopentyl-N-{(1R,2S)-1-[(cyclopropylsulfonyl)carbamoyl]-2-ethenylcyclopropyl}-1a,14-dimethyl-3,6,17-trioxo-1,1a,3,4,5,6,9,10,19,22,23,23a-dodecahydro-8H,17H-7,10-methano cyclopropa[18,19] [1,10,3,6,12]dioxatriaza cyclononadecino[11,12-b]quinazoline-8-carboxamide], the Ki in test [1] turned out to be 0.3 nM; in test [4], 135 nM; in test [2], 82.2 nM.

Values taken from patent US20130178413A1, “HCV NS3 PROTEASE INHIBITORS” (priority 2010, published 2013).
